{"source": "ChEMBL document CHEMBL3414453", "about": "“Design and optimization of hybrid of 2,4-diaminopyrimidine and arylthiazole scaffold as anticancer cell proliferation and migration agents” (Eur J Med Chem, 2015)", "key": {"MCF7": {"system": "MCF7", "experiment": "Cytotoxicity against human MCF7 cells assessed as growth inhibition after 48 hrs by sulforhodamine B assay", "format": "functional, cell-based", "settings": "MCF7, 48 h"}, "MDA-MB-231": {"system": "MDA-MB-231", "experiment": "Cytotoxicity against human MDA-MB-231 cells assessed as growth inhibition after 48 hrs by sulforhodamine B assay", "format": "functional, cell-based", "settings": "MDA-MB-231, 48 h"}}, "data": [{"smiles": "Cc1nc(Nc2ncc(C(=O)Nc3c(C)cccc3Cl)s2)cc(N2CCN(CCO)CC2)n1", "note": "[DASATINIB]", "values": [{"measurement": "IC50", "setting": "MCF7", "result": 8.05, "unit": "µM"}, {"measurement": "IC50", "setting": "MDA-MB-231", "result": 1.12, "unit": "µM"}]}]}
